Experimental data as given in patent US20250228239A1, “MOLECULES HAVING PESTICIDAL UTILITY, AND INTERMEDIATES, COMPOSITIONS, AND PROCESSES, RELATED THERETO” (priority 2024, published 2025).

How the values were obtained:
Type in all cases: in vivo
[1] = test system: Cabbage Looper (Trichoplusia ni, TRIPNI); assay: Bioassays on Cabbage Looper (CL), 128-well diet tray assay; settings: Trichoplusia ni; Cabbage Looper; rating class; read-out: CL
Outline: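 Activity is mean percent mortality over eight wells of second-instar larvae exposed to diet treated at 50 μg/cm^2 for 5–7 days at 25° C.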

[2] = test system: Beet Armyworm (Spodoptera exigua, LAPHEG); assay: Bioassays on Beet Armyworm (BAW), 128-well diet tray assay; settings: Spodoptera exigua; Beet Armyworm; rating class; read-out: BAW
Outline: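 Diet-overlay assay: 50 μg/cm^2 compound applied in 90:10 acetone-water to artificial diet, allowed to dry, then infested with 1–5 L2 larvae/well; 8 wells/compound; covered, vented; 25° C., 14:10 L:D, 5–7 d; % mortality per well, averaged.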

[3] = test system: Yellow Fever Mosquito (Aedes aegypti, AEDSAE); settings: Yellow Fever Mosquito; rating class
Outline: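 Compounds from DMSO master plates (4000 ppm stock) diluted in 90:10 water/acetone, then dispensed into six replicate plates and infested with ~1-day-old Aedes aegypti larvae in liver-powder water. Held covered at room temperature for 3 days; each well scored for larval mortality and graded on a rating scale.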

| SMILES | pest or weed control at 50 µg/cm2 [1] | pest or weed control at 50 µg/cm2 [2] | YFM [3] |
| --- | --- | --- | --- |
| CC(=O)Nc1cc(NC(=O)c2cc(NC(=O)[C@H]3[C@H](c4cc(Cl)c(Cl)c(Cl)c4)C3(Cl)Cl)ccc2F)c(F)cc1F [F1553, N-(5-Acetamido-2,4-difluorophenyl)-5-((1R,3R)-2,2-dichloro-3-(3,4,5-trichlorophenyl)cyclopropane-1-carboxamido)-2-fluorobenzamide] | 50 to 100% | 50 to 100% | A (80–100) |
| O=C(Nc1c(F)ccc(NC(=O)C(F)(F)F)c1F)c1cc(NC(=O)[C@H]2[C@H](c3cc(Cl)c(Cl)c(Cl)c3)C2(Cl)Cl)ccc1F [F1554, 5-((1R,3R)-2,2-Dichloro-3-(3,4,5-trichlorophenyl)cyclopropane-1-carboxamido)-N-(2,6-difluoro-3-(2,2,2-trifluoroacetamido)phenyl)-2-fluorobenzamide] | 50 to 100% | 50 to 100% | A (80–100) |
| O=C(Nc1c(F)ccc(NC(=O)C(F)F)c1F)c1cc(NC(=O)[C@H]2[C@H](c3cc(Cl)c(Cl)c(Cl)c3)C2(Cl)Cl)ccc1F [F1555, 5-((1R,3R)-2,2-Dichloro-3-(3,4,5-trichlorophenyl)cyclopropane-1-carboxamido)-N-(3-(2,2-difluoroacetamido)-2,6-difluorophenyl)-2-fluorobenzamide] | 50 to 100% | 50 to 100% | A (80–100) |
| CC(=O)Nc1ccc(F)c(NC(=O)c2cc(NC(=O)[C@H]3[C@H](c4cc(Cl)c(Cl)c(Cl)c4)C3(Cl)Cl)ccc2F)c1F [F1556, N-(3-Acetamido-2,6-difluorophenyl)-5-((1R,3R)-2,2-dichloro-3-(3,4,5-trichlorophenyl)cyclopropane-1-carboxamido)-2-fluorobenzamide] | 50 to 100% | 50 to 100% | A (80–100) |
| O=C(Nc1cc(NC(=O)C(F)(F)F)c(F)cc1F)c1cc(NC(=O)[C@H]2[C@H](c3ccc(F)c(C(F)(F)F)c3)C2(Cl)Cl)ccc1F [F1557, 5-((1R,3R)-2,2-Dichloro-3-(4-fluoro-3-(trifluoromethyl)phenyl)cyclopropane-1-carboxamido)-N-(2,4-difluoro-5-(2,2,2-trifluoroacetamido)phenyl)-2-fluorobenzamide] | 50 to 100% | 50 to 100% | A (80–100) |
| O=C(Nc1cc(NC(=O)C(F)F)c(F)cc1F)c1cc(NC(=O)[C@H]2[C@H](c3ccc(F)c(C(F)(F)F)c3)C2(Cl)Cl)ccc1F [F1558, 5-((1R,3R)-2,2-Dichloro-3-(4-fluoro-3-(trifluoromethyl)phenyl)cyclopropane-1-carboxamido)-N-(5-(2,2-difluoroacetamido)-2,4-difluorophenyl)-2-fluorobenzamide] | 50 to 100% | 50 to 100% | A (80–100) |
| CC(=O)Nc1cc(NC(=O)c2cc(NC(=O)[C@H]3[C@H](c4ccc(F)c(C(F)(F)F)c4)C3(Cl)Cl)ccc2F)c(F)cc1F [F1559, N-(5-Acetamido-2,4-difluorophenyl)-5-((1R,3R)-2,2-dichloro-3-(4-fluoro-3-(trifluoromethyl)phenyl)cyclopropane-1-carboxamido)-2-fluorobenzamide] | 50 to 100% | 50 to 100% | A (80–100) |
| O=C(Nc1c(F)ccc(NC(=O)C(F)(F)F)c1F)c1cc(NC(=O)[C@H]2[C@H](c3ccc(F)c(C(F)(F)F)c3)C2(Cl)Cl)ccc1F [F1560, 5-((1R,3R)-2,2-Dichloro-3-(4-fluoro-3-(trifluoromethyl)phenyl)cyclopropane-1-carboxamido)-N-(2,6-difluoro-3-(2,2,2-trifluoroacetamido)phenyl)-2-fluorobenzamide] | 50 to 100% | 50 to 100% | A (80–100) |
